Test results taken from patent US8912213B2, “Synthesis and use of dual tyrosyl-DNA phosphodiesterase I (TDP1)- topoisomerase I (TOP1) inhibitors” (Purdue Research Foundation, priority 2012, dated 2014).
Read-outs that look alike come from different tables or passages of the source.

Tests used:
OVCAR-3 = assay: NCI screen cytotoxicity, ovarian OVCAR-3; settings: Homo sapiens, OVCAR-3, read-out: Cytotoxicity (GI50 in μM) ovarian OVCAR-3
UACC-62 = assay: NCI screen cytotoxicity, melanoma UACC-62; type: cell-based; settings: Homo sapiens, 50% growth inhibition
HCT-116 = assay: NCI screen cytotoxicity, colon HCT-116; type: cell-based; settings: Homo sapiens, 50% growth inhibition
MDA-MB-435 = assay: NCI screen cytotoxicity, breast MDA-MB-435; type: cell-based; settings: Homo sapiens, MDA-MB-435, read-out: Cytotoxicity (GI50 in μM) breast MDA-MB-435; 50% growth inhibition
SF-539 = assay: NCI screen cytotoxicity, CNS SF-539; type: cell-based; settings: Homo sapiens, read-out: Cytotoxicity (GI50 in μM) CNS SF-539; 50% growth inhibition
SN12C = assay: NCI screen cytotoxicity, renal SN12C; type: cell-based; settings: Homo sapiens, 50% growth inhibition
[1] = tested on: all human cancer cell lines successfully tested; assay: NCI screen, mean graph midpoint (MGM) for growth inhibition; settings: Homo sapiens
Tdp1 [2] = target: T1, Tdp1 (Homo sapiens (Human), UniProt Q9NUW8); assay: Gel-based assay measuring the inhibition of recombinant Tdp1; type: biochemical;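 further: 5′-32P-labeled single-stranded DNA with 3′-phosphotyrosine incubated with 5 pM enzyme for 15 min at room temperature, inhibition seen as loss of 3′-phosphate product band by densitometry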
Procedure: Tdp1 inhibitory activity was measured by the drug's ability to inhibit the hydrolysis of the phosphodiester linkage between tyrosine and the 3′-end of the DNA substrate, and to prevent the generation of an oligonucleotide with a free 3′-phosphate (N14P). Therefore, the disappearance of the gel band for N14P indicated Tdp1 inhibition.
Gel-Based Assay Measuring the Inhibition of Recombinant Tdp1. A 5′-[^32P]-labeled single-stranded DNA oligonucleotide containing a 3′-phosphotyrosine (N14Y) was generated as described by Dexheimer et al. The DNA substrate was then incubated with 5 pM recombinant Tdp1 in the absence or presence of inhibitor for 15 min at room temperature in a buffer containing 50 mM Tris HCl, pH 7.5, 80 mM KCl, 2 mM EDTA, 1 mM DTT, 40 μg/ml BSA and 0.01% Tween-20. […] Gel images were scanned using a Typhoon 8600 (GE Healthcare) and densitometric analyses were performed using the ImageQuant software (GE Healthcare).

HOP-62 = assay: NCI screen cytotoxicity, lung HOP-62; type: cell-based; settings: Homo sapiens, 50% growth inhibition
DU-145 = assay: NCI screen cytotoxicity, prostate DU-145; type: cell-based; settings: Homo sapiens, DU-145, read-out: Cytotoxicity (GI50 in μM) prostate DU-145; 50% growth inhibition
Human recombinant Top1 = Human recombinant Top1 (Homo sapiens (Human), UniProt P11387); assay: Topoisomerase I-mediated DNA cleavage reactions; type: biochemical; settings: for Top1 (compound-induced DNA cleavage, semiquantitative scale): series (B), relative to 1 μM camptothecin (90) or MJ-III-65 (91); for Top1 inhibition (semiquantitative scale): series (A), relative to 1 μM camptothecin;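 on all read-outs here: 3′-end radiolabeled DNA substrate (about 2 nM) incubated with recombinant Top1 and compound for 20 min at 25 °C, cleavage products resolved by denaturing PAGE and phosphoimaging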
Procedure: Additionally, all indenoisoquinoline sulfonates and sulfonamides were tested for Top1 cleavage complex poisoning in a Top1-mediated DNA cleavage assay.
Topoisomerase I-Mediated DNA Cleavage Reactions. Human recombinant Top1 was purified from baculovirus as previously described. DNA cleavage reactions were prepared as previously reported with the exception of the DNA substrate. […] Unincorporated [^32P]dGTP was removed using mini Quick Spin DNA columns (Roche, Indianapolis, Ind.), and the eluate containing the 3′-end-labeled DNA substrate was collected. Approximately 2 nM radiolabeled DNA substrate was incubated with recombinant Top1 in 20 μL of reaction buffer [10 mM Tris-HCl (pH 7.5), 50 mM KCl, 5 mM MgCl2, 0.1 mM EDTA, and 15 μg/mL BSA] at 25° C. for 20 min in the presence of various concentrations of compounds. The reactions were terminated by adding SDS (0.5% final concentration) followed by the addition of two volumes of loading dye (80% formamide, 10 mM sodium hydroxide, 1 mM sodium EDTA, 0.1% xylene cyanol, and 0.1% bromphenol blue). Aliquots of each reaction mixture were subjected to 20% denaturing PAGE. Gels were dried and visualized by using a phosphoimager and ImageQuant software (Molecular Dynamics).
Topoisomerase I-Mediated DNA Cleavage Reactions. Top1 reactions were performed as recently described. […] The reactions were terminated by adding SDS (0.5% final concentration) followed by the addition of two volumes of loading dye (80% formamide, 10 mM sodium hydroxide, 1 mM sodium EDTA, 0.1% xylene cyanol, and 0.1% bromphenol blue). Reactions were subjected to 20% denaturing PAGE. Gels were dried and visualized by using a Typhoon 8600 and ImageQuant software (Molecular Dynamics).

Tdp1 [3] = target: T1, Tdp1; assay: Surface plasmon resonance analysis; type: binding; settings: immobilized Tdp1
Procedure: Surface Plasmon Resonance Analysis. Binding experiments were performed on a Biacore T100 instrument (GE, Piscataway N.J.). Tdp1 was amine coupled to a CM5 sensor chip (GE Healthcare, Piscataway N.J.). […] (EDC), N-hydroxysuccinimide (NHS) and ethanolamine were purchased from GE Heathcare, (Piscataway N.J.). Neutravidin was obtained from Pierce. In order to protect the amine groups within the active site from modification, Tdp1 was bound with a 14-base oligonucleotide before coupling to the surface. […] The CM5 chip surface was activated for 7 min. with 0.1 M NHS and 0.4 M EDC at a flow rate of 20 μL/min and Tdp1-oligonucleotide mixture was injected until approximately 4000 RU's was attached. Activated amine groups were quenched with an injection of 1 M solution of ethanolamine pH 8.0 for 7 min. Any bound oligonucleotide was removed by washing the surface with 1 M NaCl. A reference surface was prepared in the same manner without coupling of Tdp1. […] Following compound injections, the surface was regenerated with a 30 second injection 1 M NaCl, a 30 second injection of 50% DMSO (v/v) and a 30 second running buffer injection. Each cycle of compound injection was followed by buffer cycle for referencing purposes. A DMSO calibration curve was included to correct for refractive index mismatches between the running buffer and compound dilution series.
Surface Plasmon Resonance Analysis. […]

[4] = target: endogenous human Tdp1 in whole cell extract (Homo sapiens (Human), UniProt Q9NUW8); assay: Gel-based assay measuring the inhibition of endogenous human Tdp1 in whole cell extract; type: biochemical; settings: human Tdp1 in whole cell extract (WCE)
Procedure: Gel-Based Assay Measuring the Inhibition of Endogenous Human Tdp1 in Whole Cell Extract. 1×10^7 DT40 knockout cells for chicken Tdp1 and complemented with human Tdp1 were collected, washed and centrifuged. Cell pellet was then resuspended with 100 μL of CellLytic M Cell Lysis Reagent (SIGMA-Aldrich C2978). After 15 min, the lysate was centrifuged at a 12,000 g for 10 min and the supernatant was transferred to a new tube. Protein concentration was determined using a nanodrop spectrophotometer (Invitrogen) and the whole cell extract was stored at −80° C. […] Reactions were then treated similarly to the recombinant enzyme containing samples (see section above).
All compounds were first tested in gel based assays for Tdp1 inhibition using recombinant (rec.) human Tdp1 and only the active compounds were tested for human Tdp1 inhibition in whole cell extract (WCE). […] was included in all experiments as positive control.

Tdp1 [5] = target: T1, Tdp1; settings: known inhibitor; cited from earlier work

Human recombinant Top1, sequence (P11387 whole entry): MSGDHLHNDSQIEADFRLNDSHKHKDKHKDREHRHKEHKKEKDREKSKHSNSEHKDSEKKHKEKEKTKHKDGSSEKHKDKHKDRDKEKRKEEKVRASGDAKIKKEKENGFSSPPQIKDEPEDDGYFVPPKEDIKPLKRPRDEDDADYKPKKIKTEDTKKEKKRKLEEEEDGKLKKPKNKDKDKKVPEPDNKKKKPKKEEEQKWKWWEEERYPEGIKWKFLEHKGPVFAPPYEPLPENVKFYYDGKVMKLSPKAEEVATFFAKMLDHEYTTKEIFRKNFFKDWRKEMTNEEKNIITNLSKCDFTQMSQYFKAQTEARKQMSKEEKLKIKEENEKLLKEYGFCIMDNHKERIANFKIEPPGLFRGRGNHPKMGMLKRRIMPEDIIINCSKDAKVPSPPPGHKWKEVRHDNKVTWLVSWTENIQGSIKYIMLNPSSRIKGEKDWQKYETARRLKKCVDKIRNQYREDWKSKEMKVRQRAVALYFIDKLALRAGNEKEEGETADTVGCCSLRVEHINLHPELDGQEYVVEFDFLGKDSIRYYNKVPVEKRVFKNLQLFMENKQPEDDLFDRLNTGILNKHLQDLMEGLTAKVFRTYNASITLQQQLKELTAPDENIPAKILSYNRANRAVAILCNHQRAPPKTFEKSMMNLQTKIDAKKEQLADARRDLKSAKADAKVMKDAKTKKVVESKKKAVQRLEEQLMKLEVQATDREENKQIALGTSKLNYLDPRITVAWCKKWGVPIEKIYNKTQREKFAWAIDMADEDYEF
T1 sequence (Q9NUW8 whole entry): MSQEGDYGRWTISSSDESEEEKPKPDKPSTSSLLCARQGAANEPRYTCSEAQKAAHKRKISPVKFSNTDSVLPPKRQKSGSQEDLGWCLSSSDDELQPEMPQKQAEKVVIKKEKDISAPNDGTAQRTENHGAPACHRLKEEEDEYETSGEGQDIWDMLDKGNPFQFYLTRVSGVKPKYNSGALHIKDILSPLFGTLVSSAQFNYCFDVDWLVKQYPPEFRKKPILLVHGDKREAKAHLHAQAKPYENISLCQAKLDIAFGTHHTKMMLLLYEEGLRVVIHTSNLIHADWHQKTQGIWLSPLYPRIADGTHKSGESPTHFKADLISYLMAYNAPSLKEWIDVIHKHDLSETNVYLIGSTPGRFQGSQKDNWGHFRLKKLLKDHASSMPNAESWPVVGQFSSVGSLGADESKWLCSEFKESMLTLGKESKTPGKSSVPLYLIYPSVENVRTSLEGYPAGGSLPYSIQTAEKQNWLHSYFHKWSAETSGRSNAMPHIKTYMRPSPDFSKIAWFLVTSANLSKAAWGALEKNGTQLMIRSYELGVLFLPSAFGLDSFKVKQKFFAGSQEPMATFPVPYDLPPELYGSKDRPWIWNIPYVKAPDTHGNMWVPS
endogenous human Tdp1 in whole cell extract, sequence (Q9NUW8 whole entry): as above

## CCOC(=O)CNc1ccc2c3c(n(CCCN)c(=O)c2c1)-c1ccccc1C3=O.Cl [Compound 40 of (B), Ethyl 2-[(6-(3-Aminopropyl)-5,11-dioxo-6,11-dihydro-5H-indeno[1,2-c]isoquinolin-3-yl)amino]acetate Hydrochloride]
OVCAR-3
  GI50: 3.12 µM
UACC-62
  GI50: 2.25 µM
HCT-116
  GI50: 0.44 µM
MDA-MB-435
  GI50: 3.05 µM
SF-539
  GI50: 8.91 µM
SN12C
  GI50: 1.75 µM
[1]; read-out: MGM (μM)
  GI50: 1.69 µM
Tdp1 [2]
  Tdp1 inhibitory activity (in words): active
Tdp1 [2]; read-out: Tdp1 (μM) IC50
  IC50: 11 ± 5 µM
HOP-62
  GI50: 0.93 µM
DU-145
  GI50: 1.68 µM

## Cl.NCCCn1c2c(c3ccc(NCC(=O)O)cc3c1=O)C(=O)c1ccccc1-2 [Compound 43 of (B), 2-((6-(3-Aminopropyl)-5,11-dioxo-6,11-dihydro-5H-indeno[1,2-c]isoquinolin-3-yl)amino)acetic Acid Hydrochloride]
OVCAR-3
  GI50: 1.6 µM
UACC-62
  GI50: 0.72 µM
HCT-116
  GI50: 0.33 µM
Human recombinant Top1
  Top1 (compound-induced DNA cleavage, semiquantitative scale): 0
MDA-MB-435
  GI50: 1.14 µM
SF-539
  GI50: 1.79 µM
SN12C
  GI50: 0.49 µM
[1]; read-out: MGM (μM)
  GI50: 0.87 ± 0.014 µM
Tdp1 [2]; series (B), determined by quadruplicate, read-out: Tdp1 (μM) IC50
  IC50: 5 ± 1.4 µM
HOP-62
  GI50: 0.65 µM
DU-145
  GI50: 1.51 µM

## COc1ccc2c(c1)-c1c(c3ccc([N+](=O)[O-])cc3c(=O)n1CCCN)C2=O.Cl [Compound 51 of (B), 6-(3-Aminopropyl)-5,6-dihydro-8-methoxy-3-nitro-5,11-dioxo-11H-indeno[1,2-c]isoquinoline Hydrochloride]
OVCAR-3
  GI50: 0.54 µM
HCT-116
  GI50: 0.06 µM
Human recombinant Top1
  Top1 (compound-induced DNA cleavage, semiquantitative scale): ++
MDA-MB-435
  GI50: 0.58 µM
SF-539
  GI50: 0.61 µM
SN12C
  GI50: 0.15 µM
[1]; read-out: MGM (μM)
  GI50: 0.17 ± 0.017 µM
Tdp1 [2]; read-out: Tdp1 (μM) IC50
  IC50: 15 ± 3 µM
DU-145
  GI50: 0.18 µM

## NCCCn1c2c(c3ccc(N)cc3c1=O)C(=O)c1ccccc1-2 [Compound 62 of (B)]
OVCAR-3
  GI50: 0.13 µM
UACC-62
  GI50: 0.3 µM
HCT-116
  GI50: 0.18 µM
MDA-MB-435
  GI50: 0.23 µM
SF-539
  GI50: 0.34 µM
SN12C
  GI50: 0.23 µM
[1]; read-out: MGM (μM)
  GI50: 0.16 µM
HOP-62
  GI50: 0.27 µM
DU-145
  GI50: 0.12 µM

## Cl.NCCCn1c2c(c3ccccc3c1=O)C(=O)c1ccccc1-2 [Compound 70 of (A)]
Human recombinant Top1
  Top1 inhibition (semiquantitative scale): +++ (between 75% and 95% activity)
Tdp1 [3]
  binding to Tdp1 by surface plasmon resonance: direct binding

## O=C1c2ccccc2-c2c1c1ccccc1c(=O)n2CCCNCCCNCCCn1c2c(c3ccccc3c1=O)C(=O)c1ccccc1-2 [Compound 145 of (A), Bis-1,3-{(5,6-dihydro-5,11-diketo-11 H-indeno[1,2-c]isoquinoline)-6-propyl-amino}propane Bis(trifluoroacetate)]
Human recombinant Top1
  Top1 inhibition (semiquantitative scale): ++++
[4]
  IC50: 1900 nM
[1]; read-out: MGM GI50
  GI50: 0.394 µM
Tdp1 [2]
  IC50: 1.5 µM

## [O]=[V]([O-])([O-])[O-] [vanadate]
Tdp1 [5]
  Tdp1 inhibition (in words): inhibition at millimolar concentrations
